Measurements published in patent US20260007681A1, “INDOLE DERIVATIVES AS ESTROGEN RECEPTOR DEGRADERS” (REGENTS OF THE UNIVERSITY OF MICHIGAN, priority 2022, published 2026).

What was measured:
[1] = Cell growth assay (WST-8) (Compounds B1-B278); format: cell-based; conditions: 96 h; T47D cell line; WST-8, 4 days; read-out: Cell Growth Inhibition in T47D cell line IC50
Experimental: Cell Growth Assay. The cells are seeded at certain concentration (e.g., at 1500/well) in multi-well plates overnight. Cells are subsequently treated with the compounds. A certain period of time (e.g., 4 days) after the compound treatment, 10% WST-8 reagent is added to the culture medium and incubate under certain condiction (e.g., in a CO2 incubator at 37° C. for 2.5 hours). The absorbance is measured on each sample using a microplate reader at certain wavelength (e.g., 450 nm). The relative absorbance is calculated against the vehicle control from three individually repeats.
Cell Growth Assay. The cells were seeded at 1500/well in 96 well plates overnight. One day after the seeding, they were treated with indicated doses of compounds respectively. 4 days after the compound treatment, 10% WST-8 reagent was added to the culture medium and incubate in a CO2 incubator at 37° C. for 2.5 hours. Before reading, the plate was mixed gently on an orbital shaker for one minute to ensure homogeneous distribution of color. The absorbance was measured of each sample using a microplate reader at a wavelength of 450 nm. The relative absorbance was calculated against the vehicle control from three individually repeats.

ER = ER (Homo sapiens (Human), UniProt P03372); test: Western blot analysis (Compounds B1-B278); format: cell-based; conditions: ER degradation by traditional Western blot; DC50 classes
Chain of ER (P03372 whole entry): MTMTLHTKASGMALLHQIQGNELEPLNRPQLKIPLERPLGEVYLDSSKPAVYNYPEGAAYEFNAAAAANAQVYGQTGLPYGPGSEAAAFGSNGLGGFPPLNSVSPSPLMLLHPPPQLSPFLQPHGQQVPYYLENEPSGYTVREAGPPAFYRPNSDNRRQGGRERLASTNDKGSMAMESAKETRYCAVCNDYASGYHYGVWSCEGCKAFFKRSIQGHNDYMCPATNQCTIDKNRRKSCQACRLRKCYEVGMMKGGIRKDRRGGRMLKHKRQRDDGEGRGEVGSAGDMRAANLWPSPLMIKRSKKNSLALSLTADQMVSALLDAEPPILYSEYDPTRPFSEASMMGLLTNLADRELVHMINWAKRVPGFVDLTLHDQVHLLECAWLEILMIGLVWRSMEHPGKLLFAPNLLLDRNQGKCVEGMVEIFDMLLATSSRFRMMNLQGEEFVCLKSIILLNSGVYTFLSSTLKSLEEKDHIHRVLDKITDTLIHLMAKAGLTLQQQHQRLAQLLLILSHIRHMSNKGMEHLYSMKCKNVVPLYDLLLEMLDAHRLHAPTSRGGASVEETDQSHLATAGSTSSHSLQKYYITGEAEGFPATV
Procedure, shortened: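 Relative target-protein levels come from densitometry of immunoblots, normalized to GAPDH. Lysates from treated cells were prepared in RIPA buffer (pH 7.6) containing protease inhibitors, and equal protein amounts, checked by BCA, were separated on 10% gels and blotted onto PVDF.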

Row | Structure (SMILES) | IC50 [1] | Traditional Western Degradation Potency (ER)
1 | C[C@@H]1Cc2c([nH]c3ccccc23)[C@@H](c2cnc(N3CC4(CCC(N5CCN6c7cc8c(cc7OC[C@@H]6C5)C(=O)N(C5CCC(=O)NC5=O)C8)CC4)C3)nc2)N1CC(F)F (stereo partly drawn) [Compound 1B32, 3-((S)-3-(2-(5-((1R,3R)-2-(2,2-difluoroethyl)-3-methyl-2,3,4,9-tetrahydro-1H-pyrido[3,4-b]indol-1-yl)pyrimidin-2-yl)-2-azaspiro[3.5]nonan-7-yl)-8-oxo-1,2,3,4,4a,5,8,10-octahydro-9H-pyrazino[1′,2′:4,5][1,4]oxazino[2,3-f]isoindol-9-yl)piperidine-2,6-dione] | > 10 nM | –
2 | C[C@@H]1Cc2c([nH]c3ccccc23)[C@@H](c2ccc(C3=CCC(C(=O)N4CCC(N5Cc6cc7c(cc6C5)C(=O)N(C5CCC(=O)NC5=O)C7=O)CC4)CC3)cc2)N1CC(F)F (stereo partly drawn) [Compound B237, 6-(1-(4′-((1R,3R)-2-(2,2-difluoroethyl)-3-methyl-2,3,4,9-tetrahydro-1H-pyrido[3,4-b]indol-1-yl)-2,3,4,5-tetrahydro-[1,1′-biphenyl]-4-carbonyl)piperidin-4-yl)-2-(2,6-dioxopiperidin-3-yl)-6,7-dihydropyrrolo[3,4-f]isoindole-1,3(2H,5H)-dione] | – | B (“B”: 10-100 nM)
3 | C[C@@H]1Cc2c([nH]c3ccccc23)[C@@H](c2ccc(C3CCC(C(=O)N4CCC(N5Cc6cc7c(cc6C5)C(=O)N(C5CCC(=O)NC5=O)C7=O)CC4)CC3)nc2)N1CC(F)F (stereo partly drawn) [Compound B238, 6-(1-(4-(5-((1R,3R)-2-(2,2-difluoroethyl)-3-methyl-2,3,4,9-tetrahydro-1H-pyrido[3,4-b]indol-1-yl)pyridin-2-yl)cyclohexane-1-carbonyl)piperidin-4-yl)-2-(2,6-dioxopiperidin-3-yl)-6,7-dihydropyrrolo[3,4-f]isoindole-1,3(2H,5H)-dione] | – | C (“C”: >100 nM)
4 | C[C@@H]1Cc2c([nH]c3ccccc23)[C@@H](c2ccc(C3CCC(C(=O)N4CCC(N5Cc6cc7c(cc6C5)C(=O)N(C5CCC(=O)NC5=O)C7=O)CC4)CC3)c(F)c2)N1CC(F)F (stereo partly drawn) [Compound B239, 6-(1-(4-(4-((1R,3R)-2-(2,2-difluoroethyl)-3-methyl-2,3,4,9-tetrahydro-1H-pyrido[3,4-b]indol-1-yl)-2-fluorophenyl)cyclohexane-1-carbonyl)piperidin-4-yl)-2-(2,6-dioxopiperidin-3-yl)-6,7-dihydropyrrolo[3,4-f]isoindole-1,3(2H,5H)-dione] | – | B (“B”: 10-100 nM)
5 | C[C@@H]1Cc2c([nH]c3ccccc23)[C@@H](c2c(F)cc(C3=CCC4(CC3)CCN(C(=O)CN3Cc5cc6c(cc5C3)C(=O)N(C3CCC(=O)NC3=O)C6=O)CC4)cc2F)N1CC(F)F (stereo partly drawn) [Compound B240, 6-(2-(9-(4-((1R,3R)-2-(2,2-difluoroethyl)-3-methyl-2,3,4,9-tetrahydro-1H-pyrido[3,4-b]indol-1-yl)-3,5-difluorophenyl)-3-azaspiro[5.5]undec-8-en-3-yl)-2-oxoethyl)-2-(2,6-dioxopiperidin-3-yl)-6,7-dihydropyrrolo[3,4-f]isoindole-1,3(2H,5H)-dione] | – | B (“B”: 10-100 nM)
6 | C[C@@H]1Cc2c([nH]c3ccccc23)[C@@H](c2ccc(C3=CCC4(CC3)CCN(C(=O)CN3Cc5cc6c(cc5C3)C(=O)N(C3CCC(=O)NC3=O)C6=O)CC4)cc2F)N1CC(F)F (stereo partly drawn) [Compound B241, 6-(2-(9-(4-((1R,3R)-2-(2,2-difluoroethyl)-3-methyl-2,3,4,9-tetrahydro-1H-pyrido[3,4-b]indol-1-yl)-3-fluorophenyl)-3-azaspiro[5.5]undec-8-en-3-yl)-2-oxoethyl)-2-(2,6-dioxopiperidin-3-yl)-6,7-dihydropyrrolo[3,4-f]isoindole-1,3(2H,5H)-dione] | – | C (“C”: >100 nM)
7 | C[C@@H]1Cc2c([nH]c3ccccc23)[C@@H](c2ccc(C3CCC4(CC3)CCN(C(=O)CN3Cc5cc6c(cc5C3)C(=O)N(C3CCC(=O)NC3=O)C6=O)CC4)cc2F)N1CC(F)F (stereo partly drawn) [Compound B243, 6-(2-(9-(4-((1R,3R)-2-(2,2-difluoroethyl)-3-methyl-2,3,4,9-tetrahydro-1H-pyrido[3,4-b]indol-1-yl)-3-fluorophenyl)-3-azaspiro[5.5]undecan-3-yl)-2-oxoethyl)-2-(2,6-dioxopiperidin-3-yl)-6,7-dihydropyrrolo[3,4-f]isoindole-1,3(2H,5H)-dione] | – | C (“C”: >100 nM)
8 | C[C@@H]1Cc2c([nH]c3ccccc23)[C@@H](c2c(F)cc(C3CCC4(CC3)CCN(C(=O)CN3Cc5cc6c(cc5C3)C(=O)N(C3CCC(=O)NC3=O)C6=O)CC4)cc2F)N1CC(F)F (stereo partly drawn) [Compound B244, 6-(2-(9-(4-((1R,3R)-2-(2,2-difluoroethyl)-3-methyl-2,3,4,9-tetrahydro-1H-pyrido[3,4-b]indol-1-yl)-3,5-difluorophenyl)-3-azaspiro[5.5]undecan-3-yl)-2-oxoethyl)-2-(2,6-dioxopiperidin-3-yl)-6,7-dihydropyrrolo[3,4-f]isoindole-1,3(2H,5H)-dione] | – | C (“C”: >100 nM)
9 | C[C@@H]1Cc2c([nH]c3ccccc23)[C@@H](c2ccc(C3=CCC(C(=O)N4CCC(N5Cc6cc7c(cc6C5)C(=O)N(C5CCC(=O)NC5=O)C7=O)CC4)CC3)cc2F)N1CC(C)(C)F (stereo partly drawn) [Compound B245, 2-(2,6-dioxopiperidin-3-yl)-6-(1-(3′-fluoro-4′-((1R,3R)-2-(2-fluoro-2-methylpropyl)-3-methyl-2,3,4,9-tetrahydro-1H-pyrido[3,4-b]indol-1-yl)-2,3,4,5-tetrahydro-[1,1′-biphenyl]-4-carbonyl)piperidin-4-yl)-6,7-dihydropyrrolo[3,4-f]isoindole-1,3(2H,5H)-dione] | – | B (“B”: 10-100 nM)
10 | C[C@@H]1Cc2c([nH]c3ccccc23)[C@@H](c2ccc(C3=CCC(C(=O)N4CCC(N5Cc6cc7c(cc6C5)C(=O)N(C5CCC(=O)NC5=O)C7=O)CC4)CC3)cc2F)N1CC(C)(F)F (stereo partly drawn) [Compound B246, 6-(1-(4′-((1R,3R)-2-(2,2-difluoropropyl)-3-methyl-2,3,4,9-tetrahydro-1H-pyrido[3,4-b]indol-1-yl)-3′-fluoro-2,3,4,5-tetrahydro-[1,1′-biphenyl]-4-carbonyl)piperidin-4-yl)-2-(2,6-dioxopiperidin-3-yl)-6,7-dihydropyrrolo[3,4-f]isoindole-1,3(2H,5H)-dione] | – | C (“C”: >100 nM)
11 | C[C@@H]1Cc2c([nH]c3ccccc23)[C@@H](c2ncc(C3=CCC(C(=O)N4CCC(N5Cc6cc7c(cc6C5)C(=O)N(C5CCC(=O)NC5=O)C7=O)CC4)CC3)cc2F)N1CC(C)(F)F (stereo partly drawn) [Compound B247, 6-(1-(4-(6-((1S,3R)-2-(2,2-difluoropropyl)-3-methyl-2,3,4,9-tetrahydro-1H-pyrido[3,4-b]indol-1-yl)-5-fluoropyridin-3-yl)cyclohex-3-ene-1-carbonyl)piperidin-4-yl)-2-(2,6-dioxopiperidin-3-yl)-6,7-dihydropyrrolo[3,4-f]isoindole-1,3(2H,5H)-dione] | – | C (“C”: >100 nM)
12 | C[C@@H]1Cc2c([nH]c3ccccc23)[C@@H](c2ncc(C3=CCC(C(=O)N4CCC(N5Cc6cc7c(cc6C5)C(=O)N(C5CCC(=O)NC5=O)C7=O)CC4)CC3)cc2F)N1CC(C)(C)F (stereo partly drawn) [Compound B248, 2-(2,6-dioxopiperidin-3-yl)-6-(1-(4-(5-fluoro-6-((1S,3R)-2-(2-fluoro-2-methylpropyl)-3-methyl-2,3,4,9-tetrahydro-1H-pyrido[3,4-b]indol-1-yl)pyridin-3-yl)cyclohex-3-ene-1-carbonyl)piperidin-4-yl)-6,7-dihydropyrrolo[3,4-f]isoindole-1,3(2H,5H)-dione] | – | C (“C”: >100 nM)
13 | C[C@@H]1Cc2c([nH]c3ccccc23)[C@@H](c2c(F)cc(C3=CCC(C(=O)N4CCC(N5Cc6cc7c(cc6C5)C(=O)N(C5CCC(=O)NC5=O)C7=O)CC4)CC3)cc2F)N1CC1(F)CC1 (stereo partly drawn) [Compound B249, 6-(1-(3′,5′-difluoro-4′-((1R,3R)-2-((1-fluorocyclopropyl)methyl)-3-methyl-2,3,4,9-tetrahydro-1H-pyrido[3,4-b]indol-1-yl)-2,3,4,5-tetrahydro-[1,1′-biphenyl]-4-carbonyl)piperidin-4-yl)-2-(2,6-dioxopiperidin-3-yl)-6,7-dihydropyrrolo[3,4-f]isoindole-1,3(2H,5H)-dione] | – | C (“C”: >100 nM)
14 | C[C@@H]1Cc2c([nH]c3ccccc23)[C@@H](c2ccc(C3=CCC(C(=O)N4CCC(N5Cc6cc7c(cc6C5)C(=O)N(C5CCC(=O)NC5=O)C7=O)CC4)CC3)cc2F)N1CC1(F)CC1 (stereo partly drawn) [Compound B250, 2-(2,6-dioxopiperidin-3-yl)-6-(1-(3′-fluoro-4′-((1R,3R)-2-((1-fluorocyclopropyl)methyl)-3-methyl-2,3,4,9-tetrahydro-1H-pyrido[3,4-b]indol-1-yl)-2,3,4,5-tetrahydro-[1,1′-biphenyl]-4-carbonyl)piperidin-4-yl)-6,7-dihydropyrrolo[3,4-f]isoindole-1,3(2H,5H)-dione] | – | C (“C”: >100 nM)
